Values after ≈ are worked out from the molar mass of the structure shown.
Legend:
adult liver flukes = conditions: ruminants, doses tolerated by the host animal; cited from earlier work
[1] = tested on: benzimidazole-resistant nematodes; conditions: ruminants, doses tolerated by the host animal; cited from earlier work
Tetranychus urticae = assay: F.9 Action against Tetranychus urticae; format: in vivo; conditions: 144 h, bean plants, 6 days at 25° C., read-out: activity (percentage reduction in the population)
Method: F.9 Action against Tetranychus urticae
Young bean plants are populated with a mixed population of Tetranychus urticae and sprayed one day later with an aqueous emulsion comprising 400 ppm of the test compound. The plants are then incubated for 6 days at 25° C. and then evaluated. The percentage reduction in the population (% activity) is determined by comparing the number of dead eggs, larvae and adults on the treated plants with that on untreated plants.

Heliothis virescens = assay: F.7. Ovicidal/larvicidal action against Heliothis virescens; format: in vivo; conditions: 400 ppm, egg deposits on cotton, 8 days
Method: F.7. Ovicidal/larvicidal action against Heliothis virescens
Egg deposits of Heliothis virescens on cotton are sprayed with an aqueous emulsion comprising 400 ppm of test compound. 8 days later, the percentage of eggs which have hatched and the survival rate of the caterpillars are evaluated in comparison with untreated controls (% reduction in the population).

Dermanyssus gallinae = assay: F.3. Action against Dermanyssus gallinae; format: in vivo; conditions: 72 h, after 3 days, read-out: activity (mortality of the mites)
Method: F.3. Action against Dermanyssus gallinae
2 to 3 ml of a solution comprising 100 ppm of test compound, and approximately 200 mites at various stages of development, are placed in a glass container that is open at the top. The container is then closed with a cotton wool plug, shaken for 10 minutes until the mites are completely wetted, and then inverted for a short time so that the remaining test solution can be absorbed by the cotton wool. After 3 days, the mortality of the mites is determined as a percentage by counting the number of dead individuals.

Ustilago maydis = assay: MIC, agar diffusion test / series dilution test; format: cell-based; conditions: Mycosarcoma maydis
Method: (§1) The antibiotic activity is determined by means of an agar diffusion test with reference to the inhibiting areola diameter, or from the culture density in a series dilution test.

[2] = tested on: sub-mitochondrial particles of deer heart; assay: NADH oxidation in sub-mitochondrial particles; format: biochemical
[3] = tested on: cestodes such as Moniezia benedeni; assay: F.2. Trial with sheep infested with cestodes; format: in vivo; conditions: dose of less than 20 mg/kg body weight, single dose
Method: F.2. Trial with sheep infested wtih cestodes such as Moniezia benedeni
The active ingredient is administered in the form of a suspension using a stomach probe or by intraruminal injection to sheep that have previously been artificially infested with cestodes, such as Moniezia benedeni. 1 to 3 animals are used for each dose per trial. Each sheep is treated only once with a single dose. Seven to ten days after treatment the sheep are sacrificed and dissected. The evaluation is carded out by counting the worms remaining in the intestine after the treatment. Sheep simultaneously and similarly infested but untreated are used as a control or comparison. In this test thiangazole effects an approximately 90% reduction in cestode infestation at a dose of less than 20 mg/kg body weight.

Rhizopus arrhizus = assay: Antibiotic activity, agar diffusion test / series dilution test; format: cell-based
Method: as §1

Pythium debaryanum = assay: as above; format: cell-based
Method: as §1

Botrytis cinerea = assay: as above; format: cell-based
Method: as §1

Gibberella fujikuroi = assay: as above; format: cell-based
Method: as §1

Mucor hiemalis = assay: as above; format: cell-based
Method: as §1

[4] = tested on: Heliothis virescens caterpillars; assay: F.10. Action against Heliothis virescens caterpillars; format: in vivo; conditions: 400 ppm, soybean plants, first-stage caterpillars, 6 days
Method: F. 10. Action against Heliothis virescens caterpillars
(§2) Young soybean plants are sprayed with an aqueous emulsion comprising 400 ppm of the test compound. After the spray coating has dried, the soybean plants are populated with 10 Heliothis virescens caterpillars in the first stage and placed in a plastics container. Evaluation is made 6 days later. The percentage reduction in the population or the percentage reduction in feeding damage(% activity) is determined by comparing the number of dead caterpillars and the feeding damage on the treated plants with that on untreated plants.

Aphis craccivora = assay: F.8. Action against Aphis craccivora; format: in vivo; conditions: pea seedlings, 3 and 6 days, read-out: activity (percentage reduction in the population)
Method: F.8. Action against Aphis craccivora
Pea seedlings are infested with Aphis craccivora and then sprayed with a spray mixture comprising 400 ppm of the test compound, and incubated at 20° C. Evaluation is made 3 and 6 days later. The percentage reduction in the population (% activity) is determined by comparing the number of dead aphids on the treated plants with that on untreated plants.

[5] = tested on: Plutella xylostella caterpillars; assay: F.11. Action against Plutella xylostella caterpillars; format: in vivo; conditions: cabbage plants, third-stage caterpillars, 3 days
Method: F. 11. Action against Plutella xylostella caterpillars
as §2, with “cabbage” for “soybean”, “Plutella xylostella” for “Heliothis virescens”, “third” for “first”, “3” for “6”, “damage (%” for “damage(%”, “plants. […] The activity is over 80%.” for “plants.”

[6] = tested on: nematodes such as Haemonchus contortus and Trichostrongylus colubriformis; assay: F.1. Trial with sheep infested with nematodes; format: in vivo; conditions: single dose
Method: F.1. Trial with sheep infested with nematodes such as Haemonchus contortus and Trichostrongylus colubriformis
Thiangazole is administered in the form of a suspension using a stomach probe or by intraruminal injection to sheep that have previously been artificially infested with nematodes, such as Haemonchus contortus and Trichostrongylus colubriformis. 1 to 3 animals are used for each dose per trial. Each sheep is treated only once with a single dose.
(§3) A first evaluation is made by comparing the number of worm eggs excreted in the faeces of the sheep before and after treatment.
Seven to ten days after treatment the sheep are sacrificed and dissected. The evaluation is carded out by counting the worms remaining in the intestine after the treatment. Sheep simultaneously and similarly infested but untreated are used as a control or comparison.

Lucille sericata = assay: F.4. Action against Lucille sericata; format: in vivo; conditions: 10-0.01 ppm, eggs/larvae, 30° C., four days
Method: F.4. Action against Lucille sericata
Freshly deposited eggs of the blow fly Lucille sericata are introduced in small portions (30-50 eggs) into test tubes in which 4 ml of nutrient medium have previously been mixed with 1 ml of test solution in the intermediate dilution required for the final concentration. After inoculation of the culture medium the test tubes are closed with a cotton wool plug and incubated in an incubator at 30° C. for four days. By this time, larvae approximately 1 cm long (stage 3) have developed in the medium that, for comparison, has not been treated. If a compound is active, the larvae are at this time either dead or moribund and clearly retarded. The test is carried out simultaneously at concentrations of from 10-0.01 ppm. The activity is measured at the lowest fully active concentration (LC 100). The test includes both compounds that are effective by contact and those that are effective as an ingested poison. Repellence is also taken into account, since the larvae migrate from the medium and starve.

Lucilia cuprina = assay: F.5. Action against Lucilia cuprina; format: in vivo; conditions: test solution comprising 16 ppm, evaluation after 96 hours
Method: F.5. Action against Lucilia cuprina Freshly deposited eggs of the blow fly species Lucilia cuprina are introduced in small portions (30-50 eggs) into test tubes in which 4 ml of nutrient medium have previously been mixed with 1 ml of test solution comprising 16 ppm of the test compound. After inoculation of the culture medium the test tubes are closed with a cotton wool plug and incubated in an incubator at 30° C. for four days. By this time, larvae approximately 1 cm long (stage 3) have developed in the untreated medium. If a compound is active the larvae are at this time either dead or clearly retarded. Evaluation is effected after 96 hours.

Fasciola hepatica = assay: F.6. Trial with sheep infested with Fasciola hepatica; format: in vivo; conditions: doses of less than 50 mg of active ingredient/kg of body weight, single dose
Method: F.6. Trial with sheep infested with Fasciola hepatica
The active ingredient is administered in the form of a suspension using a stomach probe or by intraruminal injection to sheep that have previously been artificially infested with Fasciola hepatica. 3 animals am used for each dose per trial. Each animal is treated only once with a single dose.
as §3
Three to four weeks after treatment the sheep are sacrificed and dissected. The evaluation is carried out by counting the liver flukes remaining in the gall-bladder ducts after treatment. Sheep simultaneously and similarly infested but untreated are used as a control or comparison. The difference in the number of liver flukes counted in the two groups gives the degree of effectiveness of the test compound.

SMILES: CCCSc1ccc2nc(NC(=O)OC)[nH]c2c1 [Albendazole]
- anthelmintic activity (adult liver flukes): totally inadequate
- anthelmintic activity [1]: totally inadequate

SMILES: CNC(=O)c1nc(C2(C)CSC(C3(C)CSC(C4(C)CSC(C=Cc5ccccc5)=N4)=N3)=N2)oc1C (stereo not shown) [Thiangazole, thiangazole]
- mortality at 400 ppm (Tetranychus urticae): ≥ 50%
- ovicidal/larvicidal activity (% reduction in the population) (Heliothis virescens): good activity (The good pesticidal activity of the compounds of formulae I and Ia according to the invention corresponds to a mortality of at least 50-60% of the mentioned pests)
- mortality at 100 ppm (Dermanyssus gallinae): ≥ 50%
- MIC (Ustilago maydis): 3.2 µg/mL (≈ 5.93 µM)
- inhibition of NADH oxidation [2]: inhibits NADH oxidation
- reduction in cestode infestation [3]: approximately 90%
- growth inhibition of fungus (Rhizopus arrhizus): inhibits the growth
- growth inhibition of fungus (Pythium debaryanum): inhibits the growth
- growth inhibition of fungus (Botrytis cinerea): inhibits the growth
- growth inhibition of fungus (Gibberella fujikuroi): inhibits the growth
- growth inhibition of fungus (Mucor hiemalis): inhibits the growth
- activity (reduction in the population or in feeding damage) [4]: very good activity
- mortality at 400 ppm (Aphis craccivora): ≥ 50%
- activity (reduction in the population or in feeding damage) ([5]; 400 ppm): good activity (The good pesticidal activity of the compounds of formulae I and Ia according to the invention corresponds to a mortality of at least 50-60% of the mentioned pests)
- activity at 400 ppm ([5]; Plutella xylostella, 72 h, read-out: % activity (reduction in the population or in feeding damage)): > 80%
- reduction of nematode infestation ([6]; 20 mg of active ingredient per kg of body weight): virtually complete reduction
- reduction in nematode infestation ([6]; stomach probe or intraruminal injection): sharp reduction in nematode infestation
- activity at lowest fully active concentration (LC 100) (Lucille sericata): full activity even at low concentrations
- activity against larvae (Lucilia cuprina): very good activity
- activity against Fasciola hepatica (liver flukes remaining) (Fasciola hepatica): good activity
